Values of other authors as cited in US11576871B2 (The Regents of the University of California, priority 2016, dated 2023).

What was measured:
[1] = children with cystinosis
[2] = system: intracellular cystine in circulating white blood cells

Row | Compound | reduction of urine volume (and liquid consumption) [1] | time to observed decrease in leukocyte cystine ([2]; delivery of cysteamine to the small intestine (WO 2007/089670)) | depletion of intracellular cystine ([2]; taken regularly, measured in circulating white blood cells)
1 | COc1ccc2c(c1)c(CC(=O)O)c(C)n2C(=O)c1ccc(Cl)cc1 [indomethacin] | about 30% |  | 
2 | NCCS [cysteamine, Cysteamine] |  | within an hour | up to 90%
